Biological target: Endothelial PAS domain-containing protein 1 (Homo sapiens, UniProt Q99814)
Sequence (Q99814 whole entry, the tested form may be a part): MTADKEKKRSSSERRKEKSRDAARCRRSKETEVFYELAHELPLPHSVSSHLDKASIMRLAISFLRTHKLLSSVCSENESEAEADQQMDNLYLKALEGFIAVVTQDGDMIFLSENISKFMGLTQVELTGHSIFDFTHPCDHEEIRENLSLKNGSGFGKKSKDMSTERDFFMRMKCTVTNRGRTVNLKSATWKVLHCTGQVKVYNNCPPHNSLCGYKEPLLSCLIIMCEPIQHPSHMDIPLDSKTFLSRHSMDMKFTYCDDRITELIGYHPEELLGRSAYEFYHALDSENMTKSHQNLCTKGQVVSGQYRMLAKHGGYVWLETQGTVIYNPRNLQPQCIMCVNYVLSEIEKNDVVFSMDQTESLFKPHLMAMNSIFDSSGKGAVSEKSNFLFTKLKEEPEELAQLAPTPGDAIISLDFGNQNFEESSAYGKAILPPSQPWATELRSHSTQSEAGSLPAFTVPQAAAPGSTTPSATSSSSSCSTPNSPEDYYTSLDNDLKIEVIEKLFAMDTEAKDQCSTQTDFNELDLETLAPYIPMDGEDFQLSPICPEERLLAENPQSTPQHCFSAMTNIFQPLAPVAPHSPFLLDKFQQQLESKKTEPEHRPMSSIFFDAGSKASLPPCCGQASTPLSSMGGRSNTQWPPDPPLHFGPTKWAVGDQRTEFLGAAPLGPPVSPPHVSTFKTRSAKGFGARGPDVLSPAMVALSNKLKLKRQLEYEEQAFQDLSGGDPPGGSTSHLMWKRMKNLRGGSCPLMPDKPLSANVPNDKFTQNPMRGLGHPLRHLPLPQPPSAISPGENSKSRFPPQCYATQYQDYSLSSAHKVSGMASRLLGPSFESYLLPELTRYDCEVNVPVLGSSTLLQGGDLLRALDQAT
Description: Agonist activity at HIF-2alpha (unknown origin) expressed in 786-O cells measured after 24 hrs by HRE based luciferase reporter gene assay

Q: Which EC50 does the source give for `Clc1cc(Cl)cc(Nc2nsc3ccccc23)c1` here?
A: Its EC50 is 2920 nM.

From ChEMBL document CHEMBL4831546, “Discovery of a Potent and Orally Bioavailable Hypoxia-Inducible Factor 2α (HIF-2α) Agonist and Its Synergistic Therapy with Prolyl Hydroxylase Inhibitors for the Treatment of Renal Anemia” (J Med Chem, 2021)
